Among the data in PMC10890530, “Meirols A–C: Bioactive Catecholic Compounds from the Marine-Derived Fungus Meira sp. 1210CH-42” (Marine Drugs, 2024) are EC50, IC50 and GI50 values, retold here.

Like-named read-outs stand apart in the source and are kept apart here.

As a reminder, the EC50 is the concentration at which the effect is half-maximal. By IC50 is commonly meant the point on the concentration scale where inhibition reaches its midpoint. The GI50 is the concentration at which growth is held to half of that of the control.

Data set [1] can be described thus: DPPH radical scavenging activity assay. The following applies: half maximal effective concentration; triplicate; read-out: DPPH Radical Scavenging Activity (EC50 ± SD). The procedure: The DPPH radical scavenging activities of 1–4 were determined by the reported method. In a 96-well plate, 100 μL of sample solution (in MeOH) was mixed with 100 μL of DPPH solution (0.16 mM in MeOH), shaken several times, and then incubated at room temperature for 30 min. The absorbance at 517 nm was recorded. Ascorbic acid was used as the positive control, and the experiments were performed in triplicate.
Background: The DPPH test is a chemical assay of radical scavenging.

Another data set addresses α-glucosidase. Briefly: α-glucosidase inhibitory activity assay (pNPG hydrolysis). It is filed as biochemical. The following applies: 50% inhibitory concentration; triplicate; read-out: α-Glucosidase Inhibitory Activity (IC50 ± SD). As to the method:
The α-glucosidase inhibitory activity was determined by measuring the absorbance increase resulting from the hydrolysis of p-nitrophenyl-α-D-glucopyranoside (pNPG, TCI) by α-glucosidase at 405 nm using a microplate reader, according to the reference to previously reported literature. The 130 μL sample solution (in 0.1 mM PBS) with the 30 μL α-glucosidase solution (0.2 U/mL) was incubated at 37 °C for 10 min. Subsequently, 40 μL of 5 mM pNPG was added. The reaction mixture was further incubated at 37 °C for 20 min. The α-glucosidase inhibitory activity was determined using a microplate reader at 405 nm. The negative control was prepared by substituting PBS buffer for the sample in the same way as the test.

Data set [2] deals with RPMI-8402, T cell acute lymphocytic leukemia. Briefly: Cytotoxicity assay, RPMI-8402 blood cancer cell line. It is filed as cell-based. The following applies: Homo sapiens, 50% growth inhibitory concentration, triplicate, read-out: Cytotoxic Activity (GI50 ± SD, μM) RPMI-8402. The procedure: (§1) NMR spectra were acquired with a Bruker AVANCE III 600 spectrometer (Bruker Biospin GmbH, Rheinstetten, Germany) with a 3 mm probe operating at 600 MHz (^1H) and 150 MHz (^13C). Chemical shifts were expressed in ppm with reference to the solvent peaks (δH 3.31 and δC 49.15 ppm for CD3OD). UV spectra were recorded with a Shimadzu UV-1650PC spectrophotometer (Shimadzu Corporation, Kyoto, Japan). IR spectra were obtained on an OPUS FT/IR-ALPHA II spectrophotometer (Bruker OPTIK GmbH & Co. KG, Ettlingen, Germany). Optical rotations were measured with a Rudolph analytical Autopol III S2 polarimeter (Rudolph Research Analytical, Hackettstown, NJ, USA). LR-ESIMS data were obtained with an ISQ EM mass spectrometer. HR-ESIMS data were obtained with a Waters SYNPT G2 Q-TOF mass spectrometer (Waters Corporation, Milford, MA, USA) at the Korea Basic Science Institute (KBSI) in Cheongju, Republic of Korea. ECD spectra were recorded with a JASCO J-1500 circular dichroism spectrometer (JASCO Corporation, Tokyo, Japan) at the Center for Research Facilities, Changwon National University, in Changwon, Republic of Korea. HPLC was performed using a BLS-Class pump (Teledyne SSI, Inc., State College, PA 16803, USA) with a Shodex RI-201H refractive index detector (Shoko Scientific Co., Ltd., Yokohama, Japan). Columns for HPLC were YMC-Triart C18 (250 mm × 10 mm, 5 μm), YMC-Triart C8 (250 mm × 10 mm, 5 μm), and YMC-CHIRAL PREP CD PM (250 mm × 4.6 mm, S-10 μm). RP silica gel (YMC-Gel ODS-A, 12 nm, S-75 μm) was used for open-column chromatography. Organic solvents were purchased as HPLC grade, and ultrapure waters were obtained from the Milipore Mili-Q Direct 8 system. The reagents used in the bioassay were purchased from Sigma-Aldrich and Tokyo Chemical Industry. Cancer cell lines were purchased from the Japanese Cancer Research Resources Bank (JCRB) (NUGC-3, JCRB Cell Bank/Cat. # JCRB0822), the DSMZ-German Collection of Microorganisms and Cell Cultures (RPMI-8402, DSMZ/Cat # ACC 290; WSU-DLCL2, DSMZ/Cat # ACC 575), and the American Type Culture Collection (ATCC) (PC-3, ATCC/Cat. # CRL-1435; MDA-MB-231, ATCC/Cat. # HTB-26; ACHN, ATCC/Cat. # CRL-1611; NCI-H23, ATCC/Cat. # CRL-5800; HCT-15, ATCC/Cat. # CCL-225; HL-60, ATCC/Cat. # CCL-240; Raji, ATCC/Cat # CCL-86; K562, ATCC/Cat # CCL-243; NALM6, ATCC/Cat # CRL-3273; U266, ATCC/Cat # TIB-196).
(§2) The cytotoxic activities of 1–4 were measured using the CellTiter-Glo luminescent cell viability assay (Promega, Madison, WI, USA) and conducted by the […], as previously described. The luminescence signal was quantified using a GloMax-Multi Detection System (Promega, Madison, WI, USA), and GI50 values were determined utilizing a relative GI50 model in GraphPad Prism (GraphPad, San Diego, CA, USA). Doxorubicin was used as the positive control.

Data set [3] has as its system NALM6, B cell acute lymphocytic leukemia. Briefly: Cytotoxicity assay, NALM6 blood cancer cell line. Format: cell-based. The following applies: triplicate, read-out: Cytotoxic Activity (GI50 ± SD, μM) NALM6. As to the method:
as §1, §2

The mark [4] stands for this setting: 50% growth inhibitory concentration.
[5] abbreviates: Homo sapiens, NALM-6, 50% growth inhibitory concentration.

For the compound `O=C1O[C@H]([C@@H](O)CO)C(O)=C1O` [Ascorbic acid, reference compound], the EC50 in data set [1] was found to be 7.81 ± 0.25 µM.
For `O=C1NCc2c1ccc(O)c2O` [Compound 2, 4,5-dihydroxyisoindolin-1-one], in data set [1], the EC50 was 6.82 ± 0.06 µM. For the same compound, at α-glucosidase, the IC50 was 199.7 ± 1.87 µM. In addition, the GI50 was over 30 µM in data set [2], 29.6 ± 2.27 µM in data set [3] (setting [4]) and 29.4 µM in data set [3] (setting [5]).
Taken in the same sequence, the figures for `O=C1CCc2c1ccc(O)c2O` [Compound 1, 4,5-dihydroxyindan-1-one] were 7.47 ± 0.13 µM, 184 ± 2.93 µM, 21 ± 0.47 µM, 9.47 ± 0.41 µM and 9.48 µM.
For `O=C1c2ccc(O)c(O)c2C[C@@H]1O` [Compound 4, meirol C], the EC50 in data set [1] was found to be 6.2 ± 0.12 µM. Further, the IC50 on α-glucosidase is over 555 µM. In addition, the GI50 in data set [2] and in data set [3] (setting [5]) was over 30 µM each time.
In the case of `COc1cccc2c1C(=O)c1c(O)c3c(c(O)c1C2=O)C[C@@](O)(C(=O)CO)C[C@@H]3O[C@H]1C[C@H](N)[C@H](O)[C@H](C)O1` [Doxorubicin, reference compound], the figures for the GI50 in data set [2] and in data set [3] (setting [5]) were 0.015 ± 0.0013 µM and 0.003 ± 0.0006 µM, respectively.
Take `O=C1C[C@@H](O)c2c1ccc(O)c2O` [Compound 3, meirol B]: in data set [1], the EC50 is 6.01 ± 0.07 µM. The IC50 on α-glucosidase was 367.4 ± 3.01 µM. The GI50 in data set [2] and in data set [3] (setting [5]) was over 30 µM each time.
